Results on 13 compounds are retold here after patent publication US7030242B2, “Selective inhibition of aggrecanase in osteoarthritis treatment” (Pfizer Inc, priority 1999, dated 2006).

Where two headings read alike, the source gives them in different places.

Test [1] concerns the target Human recombinant collagenase-3 (Homo sapiens, UniProt P45452). Kind of test: Inhibition of human collagenase-3 (recombinant collagenase-3 assay). It is filed as biochemical. How it is done:
Inhibition of Human Collagenase-3 (Recombinant Collagenase-3 Assay)
This assay is used in the invention to measure the potency (IC50s) of compounds for collagenase-3.
Human recombinant collagenase-3 is activated with 2 mM APMA (p-aminophenyl mercuric acetate) for about 2.0 hours, at about 37° C. and is diluted to about 240 ng/ml in assay buffer (50 mM Tris, pH 7.5, 200 mM sodium chloride, 5 mM calcium chloride, […], 0.02% BRIJ-35). Twenty-five micro-liters of diluted enzyme is added per well of a 96 well microfluor plate.
The final concentrations in the assay are 30 μM, 3 μM, 0.3 μM, and 0.03 μM.
Fluorescence readings (360 nm excitation; 450 nm emission) are taken at time 0 and about every 5 minutes for about 1 hour.
Positive controls and negative controls are set up in triplicate as outlined in the collagenase-1 assay. IC50's are determined as per inhibition of human collagenase (collagenase-1).

Test [2] concerns the target T1, Human recombinant collagenase-1 (Homo sapiens, UniProt P03956).
T1 sequence (P03956 100-469): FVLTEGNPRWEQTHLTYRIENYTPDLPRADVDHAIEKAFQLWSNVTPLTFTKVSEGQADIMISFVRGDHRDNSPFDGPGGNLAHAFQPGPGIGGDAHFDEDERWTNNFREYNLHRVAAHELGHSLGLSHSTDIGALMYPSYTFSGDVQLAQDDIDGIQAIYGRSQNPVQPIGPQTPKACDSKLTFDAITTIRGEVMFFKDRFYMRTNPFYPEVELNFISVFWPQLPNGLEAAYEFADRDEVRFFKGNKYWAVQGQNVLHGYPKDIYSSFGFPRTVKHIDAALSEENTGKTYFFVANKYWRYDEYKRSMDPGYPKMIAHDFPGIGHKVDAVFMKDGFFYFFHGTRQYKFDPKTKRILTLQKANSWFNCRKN
Briefly: Inhibition of human collagenase-1 (recombinant collagenase-1 assay). The following applies: Table 2, read-out: MMP-1 (IC50 class). It is filed as biochemical. How it is done: Inhibition of Human Collagenase-1 (Recombinant Collagenase-1 Assay)
This assay is used in the invention to measure the potency (IC50s) of compounds for collagenase-1.
Human recombinant collagenase-1 is activated with trypsin. The amount of trypsin is optimized for each lot of collagenase-1, but a typical reaction uses the following ratio: 5 mg trypsin per 100 mg of collagenase.
Stock solutions (10 mM) of inhibitors are made up in dimethylsulfoxide and then diluted using the following scheme: • 10 mM------>120 μM------>12 μM------>1.2 μM------>0.12 μM
Twenty-five microliters of each concentration is then added in triplicate to appropriate wells of a 96 well microfluor plate. The final concentration of inhibitor will be a 1:4 dilution after addition of enzyme and substrate. Positive controls (enzyme, no inhibitor) are set up in wells D7–D12 and negative controls (no enzyme, no inhibitors) are set in wells D1–D6.
Collagenase-1 is diluted to 240 ng/ml and […] is then added to appropriate wells of the microfluor plate. Final concentration of collagenase in the assay is 60 ng/ml.
Substrate (DNP-Pro-Cha-Gly-Cys(Me)-His-Ala-Lys(NMA)-NH2) is made as a 5 mM stock in dimethylsulfoxide and then diluted to 20 μM in assay buffer. The assay is initiated by the addition of […] substrate per well of the microfluor plate to give a final concentration of 10 μM.
Fluorescence readings (360 nm excitation, 460 nm emission) are taken at time 0 and then at about 20 minute intervals. The assay is conducted at a temperature of about 20 to about 25° C., preferably about 23° C. with a typical assay time of about 3 hours.
Fluorescence versus time is then plotted for both the blank and collagenase containing samples (data from triplicate determinations is averaged). A time point that provides a good signal (at least five fold over the blank) and that is on a linear part of the curve (usually around 120 minutes) is chosen to determine IC50 values. The zero time is used as a blank for each compound at each concentration and these values are subtracted from the 120 minute data. Data is plotted as inhibitor concentration versus % control (inhibitor fluorescence divided by fluorescence of collagenase alone ×100).

Test [3] relates to aggrecanase. Kind of test: Aggrecanase chondrocyte assay (35S-proteoglycan release, IL-1 stimulated). The test is classed as cell-based, porcine. The protocol: Aggrecanase Chondrocyte Assay
This assay is used in the invention to measure the potency (IC50s) of compounds for aggrecanase.
Primary porcine chondrocytes from articular joint cartilage are isolated by sequential trypsin and collagenase digestion followed by collagenase digestion overnight and are plated at 2×10^5 cells per well into 48 well plates with 5 μCi/ml ^35S (1000 Ci/mmol) sulphur in type I collagen coated plates. Cells are allowed to incorporate label into their proteoglycan matrix (approximately 1 week) at 37° C., under an atmosphere of 5% CO2.
The night before initiating the assay, chondrocyte monolayers are washed two times in DMEM/1% PSF/G and then allowed to incubate in fresh DMEM/1% FBS overnight.
The following morning chondrocytes are washed once in DMEM/1% PSF/G. The final wash is allowed to sit on the plates in the incubator while making dilutions. Media and dilutions can be made as described in the Table I below.
Plates are labeled and only the interior 24 wells of the plate are used. On one of the plates, several columns are designated as IL-1 (no drug) and Control (no IL-1, no drug). These control columns are periodically counted to monitor 35S-proteoglycan release. Control and IL-1 media are added to wells (450 μl) followed by compound (50 μl) so as to initiate the assay. Plates are incubated at 37° C., with a 5% CO2 atmosphere.
At 40–50% release (when CPM from IL-1 media is 4–5 times control media) as assessed by liquid scintillation counting (LSC) of media samples, the assay is terminated (about 9 to about 12 hours). Media is removed from all wells and placed in scintillation tubes. Scintillate is added and radioactive counts are acquired (LSC). To solubilize cell layers, 500 μL of papain digestion buffer (0.2 M Tris, pH 7.0, 5 mM EDTA, 5 mM DTT, and 1 mg/ml papain) is added to each well. Plates with digestion solution are incubated at 60° C. overnight. The cell layer is removed from the plates the next day and placed in scintillation tubes. Scintillate is then added, and samples counted (LSC).
The percent of released counts from the total present in each well is determined. Averages of the triplicates are made with control background subtracted from each well.

For test [4], the target named is T2, TACE (Homo sapiens, UniProt P78536).
T2 construct: Human mononuclear cells are isolated from anti-coagulated human blood; endogenous in cells; host or cells: human peripheral blood mononuclear cells, LPS stimulated
Kind of test: Inhibition of soluble TNF-α production (TACE whole blood assay). The test is classed as cell-based. The following applies: Table 2, read-out: TACE (IC50 class). How it is done: Inhibition of Soluble TNF-α Production (TACE Whole Blood Assay)
This assay is used in the invention to measure the potency (IC50s) of compounds for TACE.
Human mononuclear cells are isolated from anti-coagulated human blood using a one-step Ficoll-hypaque separation technique. (2) The mononuclear cells are washed three times in Hanks balanced salt solution (HBSS) with divalent cations and re-suspended to a density of 2×10^6/ml in HBSS containing 1% BSA.
180 μL of the cell suspension was aliquoted into flat bottom 96 well plates (Costar). Additions of compounds and LPS (100 ng/ml final concentration) gives a final volume of 200 μL. All conditions are performed in triplicate. After about a four hour incubation at about 37° C. in an humidified CO2 incubator, plates are removed and centrifuged (about 10 minutes at approximately 250×g) and the supernatants removed and assayed for TNF-α using the R&D ELISA Kit.

Where [5] appears, read: Table 2, recombinant collagenase-3 assay, read-out: MMP-13 (IC50 class).
Setting [6] is: Table 2, aggrecanase chondrocyte assay, read-out: Agg (aggrecanase IC50 class).

T2 sequence (P78536 215-824): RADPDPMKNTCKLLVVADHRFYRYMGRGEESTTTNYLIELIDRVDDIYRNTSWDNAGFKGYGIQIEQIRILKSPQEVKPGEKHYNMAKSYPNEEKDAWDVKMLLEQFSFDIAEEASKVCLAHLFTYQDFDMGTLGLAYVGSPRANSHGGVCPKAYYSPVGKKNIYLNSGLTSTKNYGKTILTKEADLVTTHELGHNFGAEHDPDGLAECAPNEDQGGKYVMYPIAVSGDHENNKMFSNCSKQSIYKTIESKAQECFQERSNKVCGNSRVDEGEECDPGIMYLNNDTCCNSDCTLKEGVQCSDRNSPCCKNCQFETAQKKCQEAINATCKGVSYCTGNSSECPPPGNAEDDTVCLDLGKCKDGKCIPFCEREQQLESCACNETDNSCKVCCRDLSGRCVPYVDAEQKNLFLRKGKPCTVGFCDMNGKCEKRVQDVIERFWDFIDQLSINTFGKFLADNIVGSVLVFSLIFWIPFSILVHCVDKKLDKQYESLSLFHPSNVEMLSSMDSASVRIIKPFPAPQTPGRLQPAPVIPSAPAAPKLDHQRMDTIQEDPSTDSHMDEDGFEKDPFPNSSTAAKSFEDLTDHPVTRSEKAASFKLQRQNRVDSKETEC

Turning to `CC1(C)C[C@@H](O)CN(S(=O)(=O)c2ccc(OCc3cc(Cl)ccc3F)cc2)[C@H]1C(=O)NO` [(2R,5R) 1-[4-(2-fluoro-5-chloro-benzyloxy)-benzenesulfonyl]-5-hydroxy-3,3-dimethyl-piperidine-2-carboxylic acidhydroxyamide], the IC50 is below 10 nM in test [1] (setting [5]), 200 to 1000 nM in test [2], 10 to 20 nM in test [3] (setting [6]) and 10000 to 20000 nM in test [4].

Take `CC1(C)C[C@@H](O)CN(S(=O)(=O)c2ccc(OCc3ccc(F)cc3)cc2)[C@H]1C(=O)NO` [(2R,5R) 1-[4-(4-fluoro-benzyloxy)-benzenesulfonyl]-5-hydroxy-3,3-dimethyl-piperidine-2-carboxylic acidhydroxyamide]: the IC50 in test [1] (setting [5]) was below 10 nM; in test [2] it was 20 to 200 nM; in test [3] (setting [6]) it was below 10 nM; in test [4], 10000 to 20000 nM.

On to `Cc1ccccc1COc1ccc(S(=O)(=O)N2CCC[C@](C)(O)[C@@H]2C(=O)NO)cc1` [(2R,3S) 1-[4-(2-methyl-benzyloxy)-benzenesulfonyl]-3-hydroxy-3-methyl-piperidine-2-carboxylic acidhydroxyamide], for which the IC50 in test [1] (setting [5]) was below 10 nM; in test [2], 200 to 1000 nM; in test [3] (setting [6]), 10 to 20 nM; in test [4] it was below 10000 nM.

Turning to `CCc1ccccc1COc1ccc(S(=O)(=O)N2CCN(C(=O)NC)[C@@H](C)[C@@H]2C(=O)NO)cc1` [(2R,3S) 4-[4-(2-ethyl-benzyloxy)-benzenesulfonyl]-3-methyl-4-carboxylic acidmethylamide-piperazine-2-carboxylic acidhydroxyamide], the IC50 in test [1] (setting [5]) was 20 to 200 nM; in test [2] it was above 1000 nM; in test [3] (setting [6]), below 10 nM; in test [4], below 10000 nM.

In the case of `CC1(C)C[C@@H](O)CN(S(=O)(=O)c2ccc(OCc3ccc(F)cc3Cl)cc2)[C@H]1C(=O)NO` [(2R,5R) 1-[4-(2-chloro-4-fluoro-benzyloxy)-benzenesulfonyl]-5-hydroxy-3,3-dimethyl-piperidine-2-carboxylic acidhydroxyamide], the IC50 in test [1] (setting [5]) was below 10 nM; in test [2] it was 200 to 1000 nM; in test [3] (setting [6]), below 10 nM; in test [4], 10000 to 20000 nM.

In the case of `Cc1ccccc1COc1ccc(S(=O)(=O)N2CCC[C@@](C)(O)C2C(=O)NO)cc1` (stereo partly drawn) [(2R,3R) 1-[4-(2-methyl-benzyloxy)-benzenesulfonyl]-3-hydroxy-3-methyl-piperidine-2-carboxylic acidhydroxyamide], the IC50 in test [1] (setting [5]) is below 10 nM; in test [2], 200 to 1000 nM; in test [3] (setting [6]), below 10 nM; in test [4] it was below 10000 nM.

With `Cc1cc(F)ccc1COc1ccc(S(=O)(=O)N2CCC[C@@](C)(O)[C@@H]2C(=O)NO)cc1` [(2R,3R) 1-[4-(4-fluoro-2-methyl-benzyloxy)-benzenesulfonyl]-3-hydroxy-3-methyl-piperidine-2-carboxylic acidhydroxyamide], the figures for the IC50 in test [1] (setting [5]), in test [3] (setting [6]) and in test [4] were below 10 nM, below 10 nM and below 10000 nM, respectively.

Turning to `CNC(=O)[C@H](Cc1ccc(OC)cc1)NC(=O)[C@@H](CC(=O)NO)CC(C)C` [reference compound], in test [1] (human recombinant enzyme, fluorogenic peptide substrate, read-out: Collagenase-3 IC50), the IC50 is 1 nM.

For the compound `C[C@@]1(O)CCCN(S(=O)(=O)c2ccc(OCc3ccc(Cl)cc3Cl)cc2)[C@H]1C(=O)NO` [(2R,3R) 1-[4-(2,4-dichloro-benzyloxy)-benzenesulfonyl]-3-hydroxy-3-methyl-piperidine-2-carboxylic acidhydroxyamide], the IC50 in test [1] (setting [5]) was below 10 nM; in test [2], 200 to 1000 nM; in test [3] (setting [6]), below 10 nM; in test [4], 10000 to 20000 nM.

Regarding `NS(=O)(=O)c1ccc(CCNC(=O)C(CC2CCCCC2)NC(=O)C(CCCc2ccccc2)CC(=O)NO)cc1` (stereo not drawn) [reference compound], the IC50 in test [3] (primary porcine chondrocytes, IL-1 (5 ng/ml), read-out: Aggrecanase IC50) amounted to 53.5 nM.

Turning to `C[C@@]1(O)CCCN(S(=O)(=O)c2ccc(OCc3ccccc3Cl)cc2)[C@H]1C(=O)NO` [(2R,3R) 1-[4-(2-chloro-benzyloxy)-benzenesulfonyl]-3-hydroxy-3-methyl-piperidine-2-carboxylic acidhydroxyamide], the IC50 in test [1] (setting [5]) was below 10 nM; in test [3] (setting [6]) it was below 10 nM; in test [4], below 10000 nM.

As to `Cc1ccc(F)cc1COc1ccc(S(=O)(=O)N2CCC[C@@](C)(O)[C@@H]2C(=O)NO)cc1` [(2R,3R) 1-[4-(2-methyl-5-fluorobenzyloxy)-benzenesulfonyl]-3-hydroxy-3-methyl-piperidine-2-carboxylic acidhydroxyamide], the values for the IC50 in test [1] (setting [5]), in test [3] (setting [6]) and in test [4] were below 10 nM, 10 to 20 nM and below 10000 nM, respectively.

For the compound `C[C@@]1(O)CCCN(S(=O)(=O)c2ccc(OCc3ccccc3F)cc2)[C@H]1C(=O)NO` [(2R,3R) 1-[4-(2-fluoro-benzyloxy)-benzenesulfonyl]-3-hydroxy-3-methyl-piperidine-2-carboxylic acidhydroxyamide], the values for the IC50 in test [2], in test [3] (setting [6]) and in test [4] were 20 to 200 nM, 10 to 20 nM and 20000 to 40000 nM, respectively.

For orientation: IC50 means the midpoint of a concentration-inhibition curve.
